According to US20150173369A1, “S[…] CONTROL AND IMPROVED CROP TOLERANCE FROM COMBINATIONS OF 2,4-D-CHOLINE, GLYPHOSATE, AND G[…] 2,4-D-, GLYPHOSATE- AND GLUFOSINATE-TOLERANT SOYBEANS, CORN, COTTON AND OTHER CROP AREAS” (Dow AgroSciences LLC, priority 2013, published 2015):
“And” between values parts separate entries of the source, which are not always exact repeats. Identical values can stand only once.

What was measured:
[1] = tested on: Conyza canadensis (L.) Cronq. (horseweed, ERICA); assay: Field trials, post-emergence weed control (% visual control); format: in vivo; details: ERICA 14DAA; 542 g ae/ha alone
Protocol: (§1) Field trials were conducted under agricultural field conditions in multiple states in the United States, including but not limited to Arkansas, Iowa, Illinois, Indiana, Kansas, Minnesota, Mississippi, Missouri, New York, Tennessee and Wisconsin. Trials were established as RCB (randomized complete block) design, with 3-4 replicates per treatment, and plot sizes varying from 5-10 feet (ft) wide by 12-30 ft long. Treatments were applied with small plot backpack sprayers, using pressurized carbon dioxide (CO2) as propellant. Pressure varied from 17-52 pounds per square inch (psi), with spray tips typically of a Flat Fan type applying water diluent at 15 gallons per acre (GPA). Boom sizes varied from 5-11 ft in width. Treatments were applied to soybean, cotton, corn or fallow crop land. Weed sizes varied, but all treatments were applied as post-emergence treatments to weeds from 2 leaf to 2 tiller growth stages varying from 3 to 17 inches in height. The weed spectrum included, but was not limited to, Amaranthus palmeri S. Wats. (Palmer amaranth, AMAPA), Ambrosia trifida L. (giant ragweed, AMBTR), Conyza canadensis (L.) Cronq. (horseweed, ERICA) and Salsola tragus L. (Russian thistle, SASKR).
(§2) Glyphosate-, 2,4-D- and glufosinate-tolerant soybeans, corn or cotton comprising genes for tolerance for each herbicide as described above were used in all trials either as a breeding stack of one to three herbicide-tolerant events or as a molecular stack where all three herbicide tolerance traits were transformed into a single event.
(§3) The 2,4-D-choline salt plus glyphosate premix formulation was a 400 g ae/L SL containing 195 g ae/L 2,4-D-choline salt and 205 g ae/L glyphosate-dimethylammonium (DMA) salt. […] All treatments were mixed in water at appropriate formulated product rates to achieve the desired rates as shown based on a unit area of application (hectare). Treatments were rated at 1 to 28 days after application (DAA) as compared to the untreated control plants. The trial sites had naturally occurring populations of weeds. The treated plots and control plots were rated blind at various intervals after application.
(§4) Colby's equation was used to determine the herbicidal effects expected from the mixtures (Colby, S. R. Calculation of the synergistic and antagonistic response of herbicide combinations. Weeds 1967, 15, 20-22). A t-test (alpha=0.05) between Colby predictions and observed combinations was used to test for significant differences indicating synergy or antagonism using replicate data. The results presented in the Tables were significant according to the described criteria. The following equation was used to calculate the expected activity of mixtures containing three active ingredients, A. B, and C: […]

[2] = tested on: Ambrosia trifida L. (giant ragweed, AMBTR); assay: as above; format: in vivo; details: 542 g ae/ha alone
Protocol: as §1, §2, §3, §4

[3] = tested on: Amaranthus palmeri S. Wats. (Palmer amaranth, AMAPA); assay: as above; format: in vivo; details: 542 g ae/ha alone
Protocol: as §1, §2, §3, §4

[4] = tested on: Salsola tragus L. (Russian thistle, SASKR); assay: as above; format: in vivo; details: 542 g ae/ha alone
Protocol: as §1, §2, §3, §4

AAD12 Soybean (GLXMA) = assay: Field trials, crop tolerance (% visual crop injury); format: in vivo, Glycine max L.
Protocol: as §1, §2, §3
Colby's equation was used to determine the herbicidal effects expected from the mixtures (Colby, S. R. Calculation of the synergistic and antagonistic response of herbicide combinations. Weeds 1967, 15, 20-22). A t-test (alpha=0.05) between Colby predictions and observed combinations was used to test for significant differences indicating synergy or antagonism using replicate data. […] The following equation was used to calculate the expected activity of mixtures containing three active ingredients, A. B, and C: […]

With `CP(=O)(O)CCC(N)C(=O)O` (centres unmarked) [Glufosinate-Ammonium, ammonium (3-amino-3-carboxypropyl)(methyl)phosphinate] the “Mean % Weed Control” value [1] was 76.8%, the “Mean % Weed Control” value ([2]; AMBTR 8DAA) was 56.7% and the “Mean % Weed Control” value ([2]; AMBTR 21DAA) was 36.7%. The “Mean % Weed Control” value ([3]; AMAPA 7DAA) was 67.5%, the “Mean % Weed Control” value ([3]; AMAPA 8DAA) was 32.5% and the “Mean % Weed Control” value ([3]; AMAPA 11DAA) was 33.8%. For the same molecule, the “Mean % Weed Control” value ([3]; AMAPA 13DAA) was 31.3%, the “Mean % Weed Control” value ([3]; AMAPA 14DAA) was 10.0% and the “Mean % Weed Control” value ([3]; AMAPA 16DAA) was 36.7%. For the same molecule, the “Mean % Weed Control” value ([3]; AMAPA 21DAA) was 38.8%, the “Mean % Weed Control” value ([3]; AMAPA 23DAA) was 21.7% and the “Mean % Weed Control” value ([4]; SASKR 21DAA) was 13.8%. The “Mean % Weed Control” value ([4]; SASKR 28DAA) was 15%, the “Mean % visual crop injury” value (AAD12 Soybean (GLXMA); GLXMA 1DAA, 542 g ae/ha alone) was 12.5% and the “Mean % visual crop injury” value (AAD12 Soybean (GLXMA); GLXMA 1DAA, 822 g ae/ha alone) was 16.3%. For the same molecule, the “Mean % visual crop injury” value (AAD12 Soybean (GLXMA); GLXMA 1DAA, 1084 g ae/ha alone) was 20.0%, the “Mean % visual crop injury” value (AAD12 Soybean (GLXMA); GLXMA 2DAA, 822 g ae/ha alone) was 9.5% and 12.3% and 11.3% and 8.3% and 7.5% and 7.3% and 13.8% and the “Mean % visual crop injury” value (AAD12 Soybean (GLXMA); GLXMA 2DAA, 1084 g ae/ha alone) was 13.0% and 15.5% and 11.3% and 11.8% and 8.5% and 7.8% and 7.5%. For the same molecule, the “Mean % visual crop injury” value (AAD12 Soybean (GLXMA); GLXMA 4DAA, 542 g ae/ha alone) was 3.8% and 2.8% and 6.3%, the “Mean % visual crop injury” value (AAD12 Soybean (GLXMA); GLXMA 5DAA, 542 g ae/ha alone) was 4.0% and the “Mean % visual crop injury” value (AAD12 Soybean (GLXMA); GLXMA 5DAA, 1084 g ae/ha alone) was 7.8%. For the same molecule, the “Mean % visual crop injury” value (AAD12 Soybean (GLXMA); GLXMA 6DAA, 823 g ae/ha alone) was 33.3%, the “Mean % visual crop injury” value (AAD12 Soybean (GLXMA); GLXMA 7DAA, 542 g ae/ha alone) was 3.3% and the “Mean % visual crop injury” value (AAD12 Soybean (GLXMA); GLXMA 8DAA, 542 g ae/ha alone) was 2.8%. For the same molecule, the “Mean % visual crop injury” value (AAD12 Soybean (GLXMA); GLXMA 9DAA, 822 g ae/ha alone) was 5.5%, the “Mean % visual crop injury” value (AAD12 Soybean (GLXMA); GLXMA 9DAA, 1084 g ae/ha alone) was 6.0% and the “Mean % visual crop injury” value (AAD12 Soybean (GLXMA); GLXMA 10DAA, 1084 g ae/ha alone) was 8.5% and 10.0%. For the same molecule, the “Mean % visual crop injury” value (AAD12 Soybean (GLXMA); GLXMA 13DAA, 823 g ae/ha alone) was 10.7%, the “Mean % visual crop injury” value (AAD12 Soybean (GLXMA); GLXMA 13DAA, 1084 g ae/ha alone) was 8.5% and the “Mean % visual crop injury” value (AAD12 Soybean (GLXMA); GLXMA 14DAA, 542 g ae/ha alone) was 5.8% and 12.5%. For the same molecule, the “Mean % visual crop injury” value (AAD12 Soybean (GLXMA); GLXMA 15DAA, 542 g ae/ha alone) was 4.5%, the “Mean % visual crop injury” value (AAD12 Soybean (GLXMA); GLXMA 15DAA, 822 g ae/ha alone) was 2.3% and 5.0% and the “Mean % visual crop injury” value (AAD12 Soybean (GLXMA); GLXMA 15DAA, 1084 g ae/ha alone) was 5.5% and 8.5% and 2.3%. The “Mean % visual crop injury” value (AAD12 Soybean (GLXMA); GLXMA 16DAA, 542 g ae/ha alone) was 3.0%, the “Mean % visual crop injury” value (AAD12 Soybean (GLXMA); GLXMA 16DAA, 822 g ae/ha alone) was 4.0% and the “Mean % visual crop injury” value (AAD12 Soybean (GLXMA); GLXMA 16DAA, 1084 g ae/ha alone) was 5.0% and 5.5%. The “Mean % visual crop injury” value (AAD12 Soybean (GLXMA); GLXMA 21DAA, 542 g ae/ha alone) was 4.0%, the “Mean % visual crop injury” value (AAD12 Soybean (GLXMA); GLXMA 21DAA, 822 g ae/ha alone) was 5.0% and the “Mean % visual crop injury” value (AAD12 Soybean (GLXMA); GLXMA 21DAA, 1084 g ae/ha alone) was 6.0%. The “Mean % visual crop injury” value (AAD12 Soybean (GLXMA); table title: % Visual Necrosis, GLXMA 2DAA, 1084 g ae/ha alone) was 25.0%, the “Mean % visual crop injury” value (AAD12 Soybean (GLXMA); table title: % Visual Necrosis, GLXMA 3DAA, 542 g ae/ha alone) was 0.0% and the “Mean % visual crop injury” value (AAD12 Soybean (GLXMA); table title: % Visual Necrosis, GLXMA 3DAA, 822 g ae/ha alone) was 0.8%. For the same molecule, the “Mean % visual crop injury” value (AAD12 Soybean (GLXMA); table title: % Visual Necrosis, GLXMA 3DAA, 1084 g ae/ha alone) was 3.0% and 8.5% and 1.5% and 1.3%, the “Mean % visual crop injury” value (AAD12 Soybean (GLXMA); table title: % Visual Necrosis, GLXMA 5DAA, 542 g ae/ha alone) was 2.8% and the “Mean % visual crop injury” value (AAD12 Soybean (GLXMA); table title: % Visual Necrosis, GLXMA 7DAA, 542 g ae/ha alone) was 0.5% and 0.3%. The “Mean % visual crop injury” value (AAD12 Soybean (GLXMA); table title: % Visual Necrosis, GLXMA 7DAA, 822 g ae/ha alone) was 0.8% and 0.0% and 10.0% and 1.0% and 1.3%, the “Mean % visual crop injury” value (AAD12 Soybean (GLXMA); table title: % Visual Necrosis, GLXMA 7DAA, 1084 g ae/ha alone) was 3.3% and 1.3% and 10.0% and 2.0% and 2.3% and the “Mean % visual crop injury” value (AAD12 Soybean (GLXMA); table title: % Visual Necrosis, GLXMA 8DAA, 822 g ae/ha alone) was 7.5%. For the same molecule, the “Mean % visual crop injury” value (AAD12 Soybean (GLXMA); table title: % Visual Necrosis, GLXMA 8DAA, 1084 g ae/ha alone) was 10.0% and 12.5% and 6.5%, the “Mean % visual crop injury” value (AAD12 Soybean (GLXMA); table title: % Visual Necrosis, GLXMA 9DAA, 822 g ae/ha alone) was 6.0% and the “Mean % visual crop injury” value (AAD12 Soybean (GLXMA); table title: % Visual Necrosis, GLXMA 10DAA, 1084 g ae/ha alone) was 2.3%. For the same molecule, the “Mean % visual crop injury” value (AAD12 Soybean (GLXMA); table title: % Visual Necrosis, GLXMA 14DAA, 822 g ae/ha alone) was 0.0% and 1.0%, the “Mean % visual crop injury” value (AAD12 Soybean (GLXMA); table title: % Visual Necrosis, GLXMA 14DAA, 1084 g ae/ha alone) was 5.0% and 2.0% and the “Mean % visual crop injury” value (AAD12 Soybean (GLXMA); table title: % Visual Necrosis, GLXMA 16DAA, 542 g ae/ha alone) was 3.0%. The “Mean % visual crop injury” value (AAD12 Soybean (GLXMA); table title: % Visual Necrosis, GLXMA 16DAA, 822 g ae/ha alone) was 5.0% and the “Mean % visual crop injury” value (AAD12 Soybean (GLXMA); table title: % Visual Necrosis, GLXMA 16DAA, 1084 g ae/ha alone) was 1.8%.
